Paper PMC4979471 (Cell Death Discovery, 2015)
Read-outs that look alike come from different tables or passages of the source.

Legend:
Assay in all cases: Kinase selectivity, P33-radiolabeled assay
Format in all cases: biochemical
Conditions in all cases: 10 μM ATP
[1] = target: T1, MLK2/MAP3K10 (Homo sapiens, UniProt Q02779)
T1 construct: purchased Reaction Biology Corp
Procedure, shortened: (§1)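 ATP at 10 μM; test article at 10 μM, single point, two replicates. Output is activity as % of DMSO.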

[2] = target: T2, PKCiota (Homo sapiens, UniProt P41743)
T2 construct: purchased Reaction Biology Corp
T2 sequence (P41743 1-596): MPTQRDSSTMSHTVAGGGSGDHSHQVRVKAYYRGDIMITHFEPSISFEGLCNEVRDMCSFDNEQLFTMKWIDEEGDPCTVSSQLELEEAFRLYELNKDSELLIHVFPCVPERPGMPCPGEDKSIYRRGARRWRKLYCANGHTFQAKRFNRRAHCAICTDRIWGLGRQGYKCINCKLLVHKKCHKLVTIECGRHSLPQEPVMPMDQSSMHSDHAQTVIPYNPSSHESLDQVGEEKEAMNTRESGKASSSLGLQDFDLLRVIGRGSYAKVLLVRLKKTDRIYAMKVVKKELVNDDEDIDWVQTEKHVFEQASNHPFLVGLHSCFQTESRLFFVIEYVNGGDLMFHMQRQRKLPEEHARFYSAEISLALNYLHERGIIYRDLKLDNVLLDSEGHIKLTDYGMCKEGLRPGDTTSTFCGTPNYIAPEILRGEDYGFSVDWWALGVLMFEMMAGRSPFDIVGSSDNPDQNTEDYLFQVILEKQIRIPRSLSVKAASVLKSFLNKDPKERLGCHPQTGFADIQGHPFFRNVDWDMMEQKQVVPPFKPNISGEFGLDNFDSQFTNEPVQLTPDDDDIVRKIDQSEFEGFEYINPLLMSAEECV
Procedure, shortened: as §1

[3] = target: T3, p70S6Kb/RPS6KB2 (Homo sapiens, UniProt Q9UBS0)
T3 construct: purchased Reaction Biology Corp
T3 sequence (Q9UBS0 whole entry): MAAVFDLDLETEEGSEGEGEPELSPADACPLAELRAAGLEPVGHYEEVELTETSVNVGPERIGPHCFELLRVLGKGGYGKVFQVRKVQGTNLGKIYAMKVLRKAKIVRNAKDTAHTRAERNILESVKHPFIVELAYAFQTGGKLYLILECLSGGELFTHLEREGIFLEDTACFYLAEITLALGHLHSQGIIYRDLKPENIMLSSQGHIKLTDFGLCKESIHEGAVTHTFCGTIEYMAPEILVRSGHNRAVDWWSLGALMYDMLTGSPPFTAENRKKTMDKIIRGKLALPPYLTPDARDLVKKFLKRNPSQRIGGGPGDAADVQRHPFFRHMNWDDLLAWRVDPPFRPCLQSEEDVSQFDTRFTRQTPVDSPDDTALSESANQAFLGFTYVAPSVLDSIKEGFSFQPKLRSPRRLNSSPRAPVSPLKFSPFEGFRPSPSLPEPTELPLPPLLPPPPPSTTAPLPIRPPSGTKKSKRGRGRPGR
Procedure, shortened: as §1

[4] = target: T4, TTBK1 (Homo sapiens, UniProt Q5TCY1)
T4 construct: purchased Reaction Biology Corp
T4 sequence (Q5TCY1 whole entry): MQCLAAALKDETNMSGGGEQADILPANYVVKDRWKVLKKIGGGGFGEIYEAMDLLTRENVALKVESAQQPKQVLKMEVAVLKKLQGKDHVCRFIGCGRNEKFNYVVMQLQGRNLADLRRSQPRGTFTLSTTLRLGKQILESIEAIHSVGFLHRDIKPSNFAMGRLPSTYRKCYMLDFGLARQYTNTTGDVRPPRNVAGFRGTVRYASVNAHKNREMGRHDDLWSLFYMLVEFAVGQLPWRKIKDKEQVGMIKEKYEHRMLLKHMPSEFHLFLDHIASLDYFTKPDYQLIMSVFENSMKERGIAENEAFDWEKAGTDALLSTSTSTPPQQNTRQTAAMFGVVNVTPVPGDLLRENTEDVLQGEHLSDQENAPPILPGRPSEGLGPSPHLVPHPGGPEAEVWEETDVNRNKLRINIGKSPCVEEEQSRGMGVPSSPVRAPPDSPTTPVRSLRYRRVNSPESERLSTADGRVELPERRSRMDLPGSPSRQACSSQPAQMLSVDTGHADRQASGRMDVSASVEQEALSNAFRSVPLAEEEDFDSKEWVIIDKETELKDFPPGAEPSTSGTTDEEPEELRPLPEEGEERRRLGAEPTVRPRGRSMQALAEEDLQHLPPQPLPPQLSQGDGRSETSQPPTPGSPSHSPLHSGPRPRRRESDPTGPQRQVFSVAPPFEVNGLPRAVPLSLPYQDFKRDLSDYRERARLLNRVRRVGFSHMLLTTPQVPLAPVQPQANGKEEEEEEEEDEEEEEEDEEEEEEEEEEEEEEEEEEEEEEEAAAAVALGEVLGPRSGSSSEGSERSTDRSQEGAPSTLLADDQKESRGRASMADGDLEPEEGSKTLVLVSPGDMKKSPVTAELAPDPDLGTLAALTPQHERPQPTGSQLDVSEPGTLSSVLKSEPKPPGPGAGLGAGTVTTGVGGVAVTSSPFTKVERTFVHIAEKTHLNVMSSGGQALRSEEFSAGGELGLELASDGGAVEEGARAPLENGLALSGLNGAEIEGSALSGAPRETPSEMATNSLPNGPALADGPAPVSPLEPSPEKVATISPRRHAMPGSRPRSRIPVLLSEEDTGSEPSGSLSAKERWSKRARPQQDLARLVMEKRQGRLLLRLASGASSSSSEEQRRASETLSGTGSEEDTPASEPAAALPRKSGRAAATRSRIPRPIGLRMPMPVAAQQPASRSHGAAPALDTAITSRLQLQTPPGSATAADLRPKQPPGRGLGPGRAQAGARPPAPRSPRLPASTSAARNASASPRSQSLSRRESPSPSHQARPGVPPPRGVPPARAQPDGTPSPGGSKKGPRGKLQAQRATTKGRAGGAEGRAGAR
Procedure, shortened: as §1

[5] = target: T5, CDK6/cyclin D3 (Homo sapiens, UniProt Q00534)
T5 construct: purchased Reaction Biology Corp
T5 sequence (Q00534 whole entry): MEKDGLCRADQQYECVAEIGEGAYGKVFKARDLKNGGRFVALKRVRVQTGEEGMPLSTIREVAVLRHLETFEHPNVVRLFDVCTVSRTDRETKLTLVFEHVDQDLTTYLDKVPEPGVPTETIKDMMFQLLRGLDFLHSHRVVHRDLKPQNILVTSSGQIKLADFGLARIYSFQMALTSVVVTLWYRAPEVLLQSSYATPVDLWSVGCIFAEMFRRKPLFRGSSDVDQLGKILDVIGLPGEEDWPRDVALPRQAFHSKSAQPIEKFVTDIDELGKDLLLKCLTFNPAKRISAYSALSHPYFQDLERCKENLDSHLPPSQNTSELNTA
T5 sequence (P30281 whole entry partner): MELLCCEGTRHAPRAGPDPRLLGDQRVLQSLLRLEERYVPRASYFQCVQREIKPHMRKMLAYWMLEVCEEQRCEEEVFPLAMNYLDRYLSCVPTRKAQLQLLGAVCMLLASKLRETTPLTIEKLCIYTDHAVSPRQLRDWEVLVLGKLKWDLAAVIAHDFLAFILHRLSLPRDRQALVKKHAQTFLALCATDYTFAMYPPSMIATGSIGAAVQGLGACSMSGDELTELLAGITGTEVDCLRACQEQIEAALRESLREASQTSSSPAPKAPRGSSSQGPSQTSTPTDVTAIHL
Procedure, shortened: as §1

[6] = target: T6, JNK1 (Homo sapiens, UniProt P45983)
T6 construct: purchased Reaction Biology Corp
T6 sequence (P45983 whole entry): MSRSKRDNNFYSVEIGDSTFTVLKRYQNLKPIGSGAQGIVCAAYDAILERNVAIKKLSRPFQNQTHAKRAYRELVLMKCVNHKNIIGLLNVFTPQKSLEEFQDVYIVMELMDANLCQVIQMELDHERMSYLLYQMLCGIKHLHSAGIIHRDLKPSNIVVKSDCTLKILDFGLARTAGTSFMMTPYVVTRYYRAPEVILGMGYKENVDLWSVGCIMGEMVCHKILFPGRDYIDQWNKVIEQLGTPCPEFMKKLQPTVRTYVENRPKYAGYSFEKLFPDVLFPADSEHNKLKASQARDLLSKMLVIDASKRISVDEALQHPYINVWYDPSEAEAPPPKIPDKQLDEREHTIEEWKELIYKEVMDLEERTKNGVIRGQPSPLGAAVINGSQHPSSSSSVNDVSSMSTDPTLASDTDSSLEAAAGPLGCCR
Procedure, shortened: as §1

[7] = target: T7, SRPK2 (Homo sapiens, UniProt P78362)
T7 construct: purchased Reaction Biology Corp
T7 sequence (P78362 whole entry): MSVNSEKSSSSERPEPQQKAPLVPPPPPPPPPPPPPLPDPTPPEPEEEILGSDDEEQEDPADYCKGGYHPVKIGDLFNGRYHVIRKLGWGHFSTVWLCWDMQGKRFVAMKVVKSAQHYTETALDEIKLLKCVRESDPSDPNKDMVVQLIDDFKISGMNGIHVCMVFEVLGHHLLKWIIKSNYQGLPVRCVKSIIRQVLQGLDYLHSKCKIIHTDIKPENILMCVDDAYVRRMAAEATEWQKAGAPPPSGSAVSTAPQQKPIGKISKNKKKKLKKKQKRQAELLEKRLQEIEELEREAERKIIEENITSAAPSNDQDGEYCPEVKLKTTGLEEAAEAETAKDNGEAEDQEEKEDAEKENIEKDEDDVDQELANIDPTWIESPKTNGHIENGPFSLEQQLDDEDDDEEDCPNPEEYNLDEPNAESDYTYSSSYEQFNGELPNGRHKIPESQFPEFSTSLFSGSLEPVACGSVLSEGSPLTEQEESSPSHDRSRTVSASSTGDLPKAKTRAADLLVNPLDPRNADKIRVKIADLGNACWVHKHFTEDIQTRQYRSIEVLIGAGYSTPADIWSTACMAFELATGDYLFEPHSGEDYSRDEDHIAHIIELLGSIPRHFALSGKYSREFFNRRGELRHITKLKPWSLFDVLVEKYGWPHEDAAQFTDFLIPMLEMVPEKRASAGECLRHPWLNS
Procedure, shortened: as §1

[8] = target: T8, CLK4 (Homo sapiens, UniProt Q9HAZ1)
T8 construct: purchased Reaction Biology Corp
T8 sequence (Q9HAZ1 whole entry): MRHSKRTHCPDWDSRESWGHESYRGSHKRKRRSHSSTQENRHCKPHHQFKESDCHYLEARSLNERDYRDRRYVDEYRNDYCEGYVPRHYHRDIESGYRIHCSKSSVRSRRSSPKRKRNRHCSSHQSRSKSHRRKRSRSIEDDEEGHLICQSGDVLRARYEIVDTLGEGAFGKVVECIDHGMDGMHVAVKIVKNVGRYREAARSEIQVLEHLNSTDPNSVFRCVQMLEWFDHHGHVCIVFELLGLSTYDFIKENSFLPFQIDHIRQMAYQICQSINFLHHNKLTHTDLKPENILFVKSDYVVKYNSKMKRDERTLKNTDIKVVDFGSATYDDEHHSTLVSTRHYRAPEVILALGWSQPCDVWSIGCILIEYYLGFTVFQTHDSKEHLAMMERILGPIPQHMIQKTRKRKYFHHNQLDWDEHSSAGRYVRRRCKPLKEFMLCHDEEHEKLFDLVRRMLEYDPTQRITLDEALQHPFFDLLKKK
Procedure, shortened: as §1

[9] = target: T9, TSSK3/STK22C (Homo sapiens, UniProt Q96PN8)
T9 construct: purchased Reaction Biology Corp
T9 sequence (Q96PN8 1-268): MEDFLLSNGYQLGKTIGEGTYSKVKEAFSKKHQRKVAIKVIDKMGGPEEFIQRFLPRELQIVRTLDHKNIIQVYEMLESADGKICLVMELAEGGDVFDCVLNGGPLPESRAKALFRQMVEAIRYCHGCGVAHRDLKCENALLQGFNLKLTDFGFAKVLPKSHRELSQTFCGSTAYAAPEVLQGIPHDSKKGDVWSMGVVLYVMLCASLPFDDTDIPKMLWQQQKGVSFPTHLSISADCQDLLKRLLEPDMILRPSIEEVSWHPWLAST
Procedure, shortened: as §1

[10] = target: T10, TEC (Homo sapiens, UniProt P42680)
T10 construct: purchased Reaction Biology Corp
T10 sequence (P42680 1-631): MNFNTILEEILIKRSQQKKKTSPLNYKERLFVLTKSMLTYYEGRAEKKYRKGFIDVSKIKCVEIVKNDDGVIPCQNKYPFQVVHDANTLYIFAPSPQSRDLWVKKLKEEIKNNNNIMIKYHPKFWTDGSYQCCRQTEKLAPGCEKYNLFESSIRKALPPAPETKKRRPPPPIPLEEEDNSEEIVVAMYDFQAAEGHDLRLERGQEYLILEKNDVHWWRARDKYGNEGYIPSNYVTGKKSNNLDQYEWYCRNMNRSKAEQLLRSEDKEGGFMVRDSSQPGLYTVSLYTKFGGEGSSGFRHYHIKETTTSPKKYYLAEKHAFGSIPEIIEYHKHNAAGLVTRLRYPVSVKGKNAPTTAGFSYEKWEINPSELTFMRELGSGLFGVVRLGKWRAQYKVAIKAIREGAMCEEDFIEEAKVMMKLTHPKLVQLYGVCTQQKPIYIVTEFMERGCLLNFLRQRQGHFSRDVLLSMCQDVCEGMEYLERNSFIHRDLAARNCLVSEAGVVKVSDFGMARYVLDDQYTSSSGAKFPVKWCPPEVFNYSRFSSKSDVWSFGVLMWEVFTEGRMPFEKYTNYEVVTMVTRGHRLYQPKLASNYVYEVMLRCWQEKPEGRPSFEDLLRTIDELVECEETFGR
Procedure, shortened: as §1

[11] = read-out: % Enzyme Activity (relative to DMSO controls) AVG
[12] = read-out: % Enzyme Activity (relative to DMSO controls) Data 1
[13] = read-out: % Enzyme Activity (relative to DMSO controls) Data 2

T1 sequence (Q02779 whole entry): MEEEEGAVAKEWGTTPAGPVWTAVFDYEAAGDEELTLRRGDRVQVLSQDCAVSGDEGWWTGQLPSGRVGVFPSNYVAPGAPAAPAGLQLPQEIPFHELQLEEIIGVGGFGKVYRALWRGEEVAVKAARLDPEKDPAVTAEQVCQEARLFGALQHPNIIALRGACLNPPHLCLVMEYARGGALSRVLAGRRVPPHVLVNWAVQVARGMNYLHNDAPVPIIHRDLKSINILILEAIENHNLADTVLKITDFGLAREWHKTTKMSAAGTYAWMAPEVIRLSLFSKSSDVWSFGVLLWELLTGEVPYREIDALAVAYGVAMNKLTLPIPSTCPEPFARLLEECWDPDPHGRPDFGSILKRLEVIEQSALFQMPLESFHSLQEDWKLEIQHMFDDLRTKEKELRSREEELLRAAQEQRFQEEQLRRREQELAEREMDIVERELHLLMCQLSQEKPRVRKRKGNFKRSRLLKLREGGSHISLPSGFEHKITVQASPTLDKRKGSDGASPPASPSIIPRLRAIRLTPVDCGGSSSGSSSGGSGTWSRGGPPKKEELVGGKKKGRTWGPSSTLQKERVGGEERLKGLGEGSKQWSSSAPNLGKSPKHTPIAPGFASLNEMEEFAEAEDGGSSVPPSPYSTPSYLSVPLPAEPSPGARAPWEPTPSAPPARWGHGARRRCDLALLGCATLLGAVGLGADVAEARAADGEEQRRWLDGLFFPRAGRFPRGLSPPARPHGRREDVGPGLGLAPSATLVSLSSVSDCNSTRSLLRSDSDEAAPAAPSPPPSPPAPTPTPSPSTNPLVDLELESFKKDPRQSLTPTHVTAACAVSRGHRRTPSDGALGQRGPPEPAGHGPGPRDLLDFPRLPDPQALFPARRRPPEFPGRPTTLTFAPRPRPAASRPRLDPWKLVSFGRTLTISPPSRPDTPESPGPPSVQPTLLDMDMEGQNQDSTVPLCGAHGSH

CC(C)(C)C(=O)N1N=CC[C@H]1c1ccccc1 [GSK′963]
remaining activity at 10 µM [1, 11]: 99.4%
remaining activity at 10 µM [1, 12]: 98.6%
remaining activity at 10 µM [1, 13]: 100%
remaining activity at 10 µM [2, 11]: 109%
remaining activity at 10 µM [2, 12]: 105%
remaining activity at 10 µM [2, 13]: 114%
remaining activity at 10 µM [3, 11]: 100%
remaining activity at 10 µM [3, 12]: 102%
remaining activity at 10 µM [3, 13]: 98%
remaining activity at 10 µM [4, 11]: 110%
remaining activity at 10 µM [4, 12]: 109%
remaining activity at 10 µM [4, 13]: 111%
remaining activity at 10 µM [5, 11]: 86.9%
remaining activity at 10 µM [5, 12]: 84.5%
remaining activity at 10 µM [5, 13]: 89.3%
remaining activity at 10 µM [6, 11]: 97.1%
remaining activity at 10 µM [6, 12]: 97.3%
remaining activity at 10 µM [6, 13]: 97%
remaining activity at 10 µM [7, 11]: 102%
remaining activity at 10 µM [7, 12]: 102%
remaining activity at 10 µM [7, 13]: 102%
remaining activity at 10 µM [8, 11]: 100%
remaining activity at 10 µM [8, 12]: 101%
remaining activity at 10 µM [8, 13]: 99.8%
remaining activity at 10 µM [9, 11]: 131%
remaining activity at 10 µM [9, 12]: 129%
remaining activity at 10 µM [9, 13]: 133%
remaining activity at 10 µM [10, 11]: 104%
remaining activity at 10 µM [10, 12]: 98.7%
remaining activity at 10 µM [10, 13]: 109%
